Assay results taken from patent US7371733B2, “Anti bacterial compounds” (Utah State University, priority 2006, dated 2008).
In brackets after ≈: the same amount, converted by molar mass. Where two headings read alike, the source gives them in different places.

Columns and labels:
E. coli (TG1) (pTZ19U-3) [1] = test: microbe, parasite or virus in culture; conditions: Escherichia coli
Experimental: (§1) After the synthesis was completed, both representative aminoglycosides were assayed in standard dilution and diffusion assay against aminoglycoside susceptible and resistant strains of Escherichia coli using amikacin, kanamycin, ribostamycin, and butirosin as the controls. One resistant strain is equipped with the pTZ19-3 plasmid encoded for APH(3′)-I, which renders resistance to kanamycin, neomycin, lividomycin, paromomycin, and ribostamycin. The other resistant strain is equipped with the pSF815 plasmid encoded for AAC(6′) and APH(2″), which produces a bifunctional enzyme that catalyzes acetylation of amino group at C-6′ and phosphorylation of hydroxyl group at C-2″ position. This bifunctional enzyme enables bacteria to acquire resistance against gentamycin, amikacin, tobramycin, netilmicin, and kanamycin.
(§2) E. coli (pSF815) and E. coli (pTZ19U-3) are laboratory resistant strains using E. coli (TG1) as the host.

E. coli (TG1) (pSF815) [2] = test: microbe, parasite or virus in culture; conditions: Escherichia coli
Experimental: as §1, §2

E. coli (TG1) = test: MIC, standard dilution and diffusion assay, aminoglycoside susceptible strain; conditions: for MIC: Escherichia coli; for Minimum Inhibitory Concentrations (MIC): Table 2 entry 2, E. coli (TG1) aminoglycoside susceptible strain
Experimental: as §1, §2

[3] = tested on: Pseudomonas aeruginosa (ATCC 27853); conditions: for Minimum Inhibitory Concentrations (MIC): Table 2 entry 9, Pseudomonas aeruginosa (ATCC 27853)
Text: as §2

[4] = tested on: Staphylococcus aureus (ATCC 33591) (MRSA); test: MIC, methicillin-resistant S. aureus; conditions: for Minimum Inhibitory Concentrations (MIC): Table 2 entry 7, Staphylococcus aureus (ATCC 33591) (MRSA); for MIC: Staphylococcus aureus, ATCC33591|MRSA, read-out: Minimum Inhibitory Concentrations (MIC)
Text: as §2

[5] = tested on: K. pneumoniae (ATCC 13883); test: MIC, standard reference strain; conditions: for MIC: Klebsiella pneumoniae, ATCC13883, read-out: Minimum Inhibitory Concentrations (MIC); for Minimum Inhibitory Concentrations (MIC): Table 2 entry 6, K. pneumoniae (ATCC 13883)
Text: as §2

[6] = tested on: Klebsiella pneumoniae (ATCC 700603); test: microbe, parasite or virus in culture; conditions: ATCC700603, read-out: Minimum Inhibitory Concentrations (MIC)
Text: as §2

S. aureus (ATCC 25923) = test: MIC, standard reference strain; conditions: for MIC: Staphylococcus aureus, ATCC25923, read-out: Minimum Inhibitory Concentrations (MIC); for Minimum Inhibitory Concentrations (MIC): Table 2 entry 8, S. aureus (ATCC 25923)
[7] = tested on: Escherichia coli (ATCC 25922); test: MIC, standard reference strain; conditions: for MIC: Escherichia coli, ATCC25922, read-out: Minimum Inhibitory Concentrations (MIC); for Minimum Inhibitory Concentrations (MIC): Table 2 entry 1, Escherichia coli (ATCC 25922)
Text: as §2

[8] = tested on: Pseudomonas aeruginosa (ATCC 27853); test: microbe, parasite or virus in culture; conditions: ATCC27853, read-out: Minimum Inhibitory Concentrations (MIC)
Text: as §2

E. coli (TG1) (pTZ19U-3) [9] = conditions: for Minimum Inhibitory Concentrations (MIC): Table 2 entry 4, E. coli (TG1) pTZ19U-3 plasmid encoded for APH(3′)-I; for Minimum Inhibitory Concentration: Table 1, E. coli (TG1) (pTZ19U-3), plasmid encoded for APH(3′)-I
Experimental: as §1, §2

E. coli (TG1) (pSF815) [10] = conditions: for Minimum Inhibitory Concentration: Table 1, E. coli (TG1) (pSF815), plasmid encoded for AAC6′/APH2″; for Minimum Inhibitory Concentrations (MIC): Table 2 entry 3, E. coli (TG1) pSF815 plasmid encoded for AAC(6′)/APH(2″)
Experimental: as §1, §2

[11] = tested on: Klebsiella pneumoniae (ATCC 700603); conditions: Table 2 entry 5
Text: as §2

[12] = read-out: Minimum Inhibitory Concentration
[13] = read-out: Minimum Inhibitory Concentrations (MIC)

What does the source list for `CC1O[C@@H](O[C@H]2C(O[C@H]3OC(CN)[C@@H](O)[C@H](O)C3N)C(N)C[C@@H](NC(=O)[C@@H](O)CCN)C2OCCN)C(O)[C@@H](O)[C@@H]1N` (stereo partly shown) [JT050]?
MIC (E. coli (TG1) (pTZ19U-3) [1]; [12]): 4 µg/mL (≈ 6.54 µM); MIC (E. coli (TG1) (pSF815) [2]; [12]): 2 µg/mL (≈ 3.27 µM); MIC (E. coli (TG1); [12]): 8 µg/mL (≈ 13.1 µM)

Which results are given for `CC1O[C@@H](O[C@@H]2C(O)[C@H](NC(=O)[C@@H](O)CCN)CC(N)[C@H]2O[C@H]2OC(CN)[C@@H](O)[C@H](O)C2N)C(O)[C@@H](O)[C@@H]1N` (stereo partly shown) [JT005]?
MIC (E. coli (TG1) (pTZ19U-3) [1]; [12]): 4 µg/mL (≈ 7.03 µM); MIC (E. coli (TG1) (pTZ19U-3) [1]; [13]): 4 µg/mL (≈ 7.03 µM); MIC (E. coli (TG1) (pSF815) [2]; [12]): 4 µg/mL (≈ 7.03 µM); MIC (E. coli (TG1) (pSF815) [2]; [13]): 4 µg/mL (≈ 7.03 µM); Minimum Inhibitory Concentrations (MIC) [3]: Inactive; MIC (E. coli (TG1); [12]): 4 µg/mL (≈ 7.03 µM); MIC (E. coli (TG1); [13]): 4 µg/mL (≈ 7.03 µM); Minimum Inhibitory Concentrations (MIC) [4]: Inactive; MIC [5]: 2 µg/mL (≈ 3.52 µM); MIC [6]: 1 to 2 µg/mL (≈ 1.76 to 3.52 µM)

What does the source list for `C[C@H]1O[C@@H](O[C@@H]2[C@@H](O)[C@H](NC(=O)[C@@H](O)CCN)C[C@H](N)[C@H]2O[C@H]2O[C@H](CN)CC[C@H]2N)[C@H](O)[C@@H](O)[C@@H]1N` [pyrankacin]?
MIC (S. aureus (ATCC 25923)): 2 µg/mL (≈ 3.73 µM); MIC [7]: 4 µg/mL (≈ 7.45 µM); MIC (E. coli (TG1) (pTZ19U-3) [1]; [13]): 1 µg/mL (≈ 1.86 µM); MIC (E. coli (TG1) (pSF815) [2]; [13]): 1 µg/mL (≈ 1.86 µM); activity against P. aeruginosa, in words ([3]; text statement summarising Table 2): active; MIC (E. coli (TG1); [13]): 4 µg/mL (≈ 7.45 µM); MIC [4]: 8 µg/mL (≈ 14.9 µM); MIC [5]: 2 µg/mL (≈ 3.73 µM); MIC [8]: 2 µg/mL (≈ 3.73 µM); MIC [6]: 1 µg/mL (≈ 1.86 µM)

Which results are given for `CC1O[C@@H](O[C@H]2C(O[C@H]3OC(CN)CCC3N)C(N)C[C@@H](N)C2O)C(O)[C@@H](O)[C@@H]1N` (stereo partly shown) [RR501, 3′,4′-Dideoxy Pyranmycin]?
MIC (E. coli (TG1) (pTZ19U-3) [1]; [12]): 4 µg/mL (≈ 9.18 µM); MIC (E. coli (TG1) (pTZ19U-3) [1]; [13]): 4 µg/mL (≈ 9.18 µM); MIC (E. coli (TG1) (pSF815) [2]; [12]): 4 µg/mL (≈ 9.18 µM); MIC (E. coli (TG1) (pSF815) [2]; [13]): 4 µg/mL (≈ 9.18 µM); Minimum Inhibitory Concentrations (MIC) [3]: Inactive; MIC (E. coli (TG1); [12]): 8 µg/mL (≈ 18.4 µM); MIC (E. coli (TG1); [13]): 8 µg/mL (≈ 18.4 µM); MIC [4]: 4 µg/mL (≈ 9.18 µM); MIC [5]: 2 to 4 µg/mL (≈ 4.59 to 9.18 µM); MIC [6]: 2 to 4 µg/mL (≈ 4.59 to 9.18 µM); activity against resistant bacteria equipped with APH(3′), in words (E. coli (TG1) (pTZ19U-3) [9]; text statement summarising Table 1): active

What does the source list for `CC1O[C@@H](O[C@@H]2C(O)C(N)CC(N)C2O[C@H]2OC(CN)[C@@H](O)C(O)C2N)C(O)C(O)[C@@H]1N` (stereo partly shown) [TC005, pyranmycin]?
Minimum Inhibitory Concentration (E. coli (TG1) (pSF815) [10]): Inactive; MIC (E. coli (TG1) (pTZ19U-3) [1]; [12]): 8 µg/mL (≈ 17.1 µM); MIC (E. coli (TG1); [12]): 8 µg/mL (≈ 17.1 µM)

Which results are given for neomycin?
Minimum Inhibitory Concentrations (MIC) (S. aureus (ATCC 25923)): 1 µg/mL; Minimum Inhibitory Concentrations (MIC) [7]: 4 µg/mL; Minimum Inhibitory Concentrations (MIC) (E. coli (TG1) (pSF815) [10]): 2 µg/mL; Minimum Inhibitory Concentrations (MIC) [11]: Inactive; Minimum Inhibitory Concentrations (MIC) [3]: Inactive; Minimum Inhibitory Concentrations (MIC) (E. coli (TG1)): 8 µg/mL; Minimum Inhibitory Concentrations (MIC) [4]: Inactive; Minimum Inhibitory Concentrations (MIC) [5]: 2 µg/mL; Minimum Inhibitory Concentrations (MIC) (E. coli (TG1) (pTZ19U-3) [9]): Inactive

For `CC1O[C@@H](O[C@@H]2C(OCCN)C(N)CC(N)C2O[C@H]2OC(CN)[C@@H](O)C(O)C2N)C(O)C(O)[C@@H]1N` (stereo partly shown) [TC050], which “Minimum Inhibitory Concentration” value (E. coli (TG1) (pSF815) [10]) is on record?
The value was “Inactive”.

What about the MIC (E. coli (TG1) (pTZ19U-3) [1]; [12]) of the same compound?
The MIC was 8 µg/mL (≈ 15.7 µM).

What about the MIC (E. coli (TG1); [12]) of the same compound?
Its MIC is 8 µg/mL (≈ 15.7 µM).

For `NC[C@H]1O[C@H](O[C@H]2[C@H](O[C@@H]3O[C@H](CO)[C@@H](O)[C@H]3O)[C@@H](O)[C@H](N)C[C@@H]2N)[C@H](N)[C@@H](O)[C@@H]1O` [Ribostamycin, ribostamycin], which MIC (S. aureus (ATCC 25923)) is on record?
Its MIC is 8 µg/mL (≈ 17.6 µM).

And the MIC [7]?
The MIC was 8 µg/mL (≈ 17.6 µM).

What about the MIC (E. coli (TG1) (pTZ19U-3) [1]; [13]) of the same compound?
Its MIC is 32 µg/mL (≈ 70.4 µM).

And the MIC (E. coli (TG1) (pSF815) [2]; [12])?
Its MIC is 16 µg/mL (≈ 35.2 µM).

What about the MIC (E. coli (TG1) (pSF815) [2]; [13]) of the same compound?
The MIC was 16 µg/mL (≈ 35.2 µM).

And the “Minimum Inhibitory Concentrations (MIC)” value [11]?
The value was “Inactive”.

What about the “Minimum Inhibitory Concentrations (MIC)” value [3] of the same compound?
Its value is “Inactive”.

What about the MIC (E. coli (TG1); [12]) of the same compound?
Its MIC is 2 µg/mL (≈ 4.4 µM).

And the MIC (E. coli (TG1); [13])?
Its MIC is 2 µg/mL (≈ 4.4 µM).

And the “Minimum Inhibitory Concentrations (MIC)” value [4]?
Its value is “Inactive”.

What about the MIC [5] of the same compound?
Its MIC is 4 µg/mL (≈ 8.8 µM).

And the “Minimum Inhibitory Concentration” value (E. coli (TG1) (pTZ19U-3) [9])?
The value was “Inactive”.

How did the “Minimum Inhibitory Concentrations (MIC)” value (S. aureus (ATCC 25923)) turn out when gentamicin was run?
Its value is 0.5 µg/mL.

What about the “Minimum Inhibitory Concentrations (MIC)” value [7] of the same compound?
Its value is 2 µg/mL.

What about the “Minimum Inhibitory Concentrations (MIC)” value (E. coli (TG1) (pSF815) [10]) of the same compound?
The value was “Inactive ^k”.

What about the “Minimum Inhibitory Concentrations (MIC)” value [11] of the same compound?
Its value is 8 to 16 µg/mL.

What about the “Minimum Inhibitory Concentrations (MIC)” value [3] of the same compound?
The value was 0.5 to 1 µg/mL.

And the “Minimum Inhibitory Concentrations (MIC)” value (E. coli (TG1))?
The value was 2 µg/mL.

What about the “Minimum Inhibitory Concentrations (MIC)” value [4] of the same compound?
Its value is 4 µg/mL.

What about the “Minimum Inhibitory Concentrations (MIC)” value [5] of the same compound?
Its value is 1 µg/mL.

What about the “Minimum Inhibitory Concentrations (MIC)” value (E. coli (TG1) (pTZ19U-3) [9]) of the same compound?
Its value is 1 µg/mL.

For butirosin, which “Minimum Inhibitory Concentrations (MIC)” value (S. aureus (ATCC 25923)) is on record?
The value was 2 µg/mL.

What about the “Minimum Inhibitory Concentrations (MIC)” value [7] of the same compound?
Its value is 2 µg/mL.

What about the “Minimum Inhibitory Concentration” value (E. coli (TG1) (pSF815) [10]) of the same compound?
The value was 0.5 µg/mL.

What about the “Minimum Inhibitory Concentrations (MIC)” value (E. coli (TG1) (pSF815) [10]) of the same compound?
The value was 0.25 µg/mL.

What about the “Minimum Inhibitory Concentrations (MIC)” value [11] of the same compound?
The value was 0.5 µg/mL.

And the “Minimum Inhibitory Concentrations (MIC)” value [3]?
The value was “Inactive”.

What about the “Minimum Inhibitory Concentration” value (E. coli (TG1); Table 1, E. coli (TG1)) of the same compound?
The value was 0.5 µg/mL.

What about the “Minimum Inhibitory Concentrations (MIC)” value (E. coli (TG1)) of the same compound?
The value was 1 µg/mL.

What about the “Minimum Inhibitory Concentrations (MIC)” value [4] of the same compound?
Its value is “Inactive”.

What about the “Minimum Inhibitory Concentrations (MIC)” value [5] of the same compound?
Its value is 0.5 to 1 µg/mL.

And the “Minimum Inhibitory Concentration” value (E. coli (TG1) (pTZ19U-3) [9])?
The value was 0.5 µg/mL.

And the “Minimum Inhibitory Concentrations (MIC)” value (E. coli (TG1) (pTZ19U-3) [9])?
The value was 0.5 µg/mL.

What does the source list for `NCC[C@H](O)C(=O)N[C@@H]1C[C@H](N)[C@@H](O[C@H]2O[C@H](CN)[C@@H](O)[C@H](O)[C@H]2O)[C@H](O)[C@H]1O[C@H]1O[C@H](CO)[C@@H](O)[C@H](N)[C@H]1O` [Amikacin, amikacin]?
MIC (S. aureus (ATCC 25923)): 1 µg/mL (≈ 1.71 µM); MIC [7]: 1 µg/mL (≈ 1.71 µM); MIC (E. coli (TG1) (pTZ19U-3) [1]; [12]): 0.5 µg/mL (≈ 0.854 µM); MIC (E. coli (TG1) (pTZ19U-3) [1]; [13]): 0.5 µg/mL (≈ 0.854 µM); MIC (E. coli (TG1) (pSF815) [2]; [12]): 1 µg/mL (≈ 1.71 µM); MIC (E. coli (TG1) (pSF815) [2]; [13]): 1 µg/mL (≈ 1.71 µM); MIC (E. coli (TG1); [12]): 1 µg/mL (≈ 1.71 µM); MIC (E. coli (TG1); [13]): 1 µg/mL (≈ 1.71 µM); MIC [4]: 16 µg/mL (≈ 27.3 µM); MIC [5]: 1 µg/mL (≈ 1.71 µM); MIC [8]: 0.5 to 1 µg/mL (≈ 0.854 to 1.71 µM); MIC [6]: 0.5 to 1 µg/mL (≈ 0.854 to 1.71 µM)
